According to patent US7585892B2, “Compound for promoting the growth of neural cells” (Naturewise Biotech & Medicals Corporation, priority 2006, dated 2009):

What was measured:
Type in all cases: cell-based, Wistar rat
cortical neurons [1] = assay: Neurite length of cortical neurons at low cellular density (Example 4); conditions: 38 cells/mm^2, 5 days, control cells all dead
Procedure: Cells obtained from the suspension prepared in Example 1 were cultivated at a density of 38 cells/mm^2 in 6-well plates coated with 30 μg/ml poly-D-lysine (Sigma) at 37° C., 5% CO2 and 95% relative humidity. The growth media contained compounds A, B, D, and G respectively and the growth media added with 5 μl of DMSO were used as control. The differentiated cells are categorically called cortical neurons.
The experiments were repeated three times. After cultivating for 5 days, the cells were observed under microscope and the length of the neurites was measured.

cortical neurons [2] = assay: Survival of cortical neurons, MTT assay (Example 2); conditions: 300 cells/mm^2, 5 days, vs DMSO control
Procedure: Cells obtained from the suspension prepared in Example 1 were cultivated in 6-well plates coated with 30 μg/ml of poly-D-lysine (Sigma) at 300 cells/mm^2 and cultivated at 37° C., 5% CO2 and 95% relative humidity. The growth media contained compounds A, B, D, E, F, G, and H respectively and the growth media added with 5 μl of DMSO were used as control. The differentiated cells after cultivation were categorically called cortical neurons.
The experiments were repeated three times. After cultivating for 5 days, live cells were counted by a known cell-counting method (MTT assay) and the absorbance was read at 540 nm.

neural stem cells [3] = assay: Differentiation of NSCs with compound D and EGF, immunofluorescent staining (Example 6); conditions: compound D and EGF in the beginning, only the named substance at seeding
Procedure: The procedures were similar to Example 5. However, in the beginning of cultivating the neural stem cells, both compound D and EGF were added into the media. After all the cells had been attached onto the slides, the media were removed and replaced with the cultivating media containing compound D (FIG. 6B), EGF (FIG. 6C), none of the growth factors (FIG. 6D), or both compound D and EGF (FIG. 6A). The cells were cultivated for another 3 days and the cell morphology was observed thereafter by using immunofluorescent staining technique.

neural stem cells [4] = assay: Continuous cultivation of NSCs for 30 days, cell morphology (Example 7)
Procedure: As in Example 1, the NSCs were cultivated continuously and the growth media were replaced every seven days. DMSO-added growth media were used as the negative control. After 30 days, 100 μl of the cell suspension was aspirated and diluted to 1 ml. 250 μl of the supernatant was aspirated and placed on the slides coated with 30 μg/ml poly-D-lysine (Sigma). The cell morphology was observed thereafter under a microscope.

neural stem cells [5] = assay: Differentiation of NSCs from neurospheres, MAP-2 immunofluorescent staining (Example 5); conditions: added in the beginning, with or without adding again at seeding; 3 days + 3 days
Procedure: In the beginning of cultivating NSCs, either compound A or EGF was added into the growth media. The cells were cultivated for 3 days and the cells would aggregate to form neurospheres. One hundred μl of the cell suspension was aspirated and diluted to 1 ml. 250 μl of the supernatant which contained neurospheres was aspirated and placed on the cover slides coated with 30 μg/ml poly-D-lysine (Sigma). After all the cells had been attached onto the slides, the media was removed and replaced with the cultivating media containing compound A (FIG. 5A), EGF (FIG. 5C), or none of the growth factors (FIG. 5B, compound A in the beginning; FIG. 5D, EGF in the beginning). The cells were cultivated for another 3 days at the same condition as described above so that the cells would differentiate into cortical neurons.
The cells were stained with a known immunofluorescent staining method. To stain the neurons, a neurological marker of MAP-2 (microtubule-associated protein 2) antibody was used as the primary antibody and a fluorescent material-labeled mouse immunoglobulin that identified primary antibody was used as the second antibody. After the primary antibody that had been bound onto the neurons was identified and bound by the secondary antibody, the neurons emit fluorescent light under the excitation of a specific light source.

| SMILES | growth of neurons and neurites under microscope (cortical neurons [1]; 5 μM) | live cells, MTT absorbance at 540 nm (cortical neurons [2]) | cell type after differentiation (neural stem cells [3]) | growth of neurons and neurites under microscope (cortical neurons [1]; 2.5 μM) | sphere formation of neural stem cells after 30 days (neural stem cells [4]; media replaced every seven days, control almost no surviving cells) | differentiation after 30 days culture plus another 3 days (immunofluorescence) (neural stem cells [4]; neurospheres grown 30 days with compound) | cell type after differentiation (MAP-2 staining) (neural stem cells [5]) |
| --- | --- | --- | --- | --- | --- | --- | --- |
| C/C(=C\Cc1cc([C@@H]2CC(=O)c3c(O)cc(O)cc3O2)cc(O)c1O)CCCC(C)(C)O [compound B] | continuous growth of the neurons and the extension of the neurites can be observed | – | – | – | – | – | – |
| CC(C)=CCC/C(C)=C/Cc1c(O)cc2c(c1O)C(=O)C[C@@H](c1ccc(O)c(O)c1CC=C(C)C)O2 [compound G] | continuous growth of the neurons and the extension of the neurites can be observed | best results | – | – | – | – | – |
| CC(C)=CCC/C(C)=C/Cc1c([C@@H]2CC(=O)c3c(O)cc(O)cc3O2)ccc(O)c1O [compound D] | continuous growth of the neurons and the extension of the neurites can be observed | best results | the cells will differentiate into neurons | – | – | – | – |
| C/C(=C\Cc1c([C@@H]2CC(=O)c3c(O)cc(O)cc3O2)ccc(O)c1O)CCCC(C)(C)O [compound A] | – | best results | – | continuous growth of the neurons and the extension of the neurites can be observed | can maintain the characteristics of forming spherical clusters | differentiating normally into neurons with the continuous outgrowth of neurites | the cells will differentiate into neurons |
